{"source": "patent US20120045433A1", "about": "“COMBINATION THERAPY” (priority 2010, published 2012)", "key": {"[1]": {"tested_on": "human HT-29 cell xenografts", "assay": "Assessment of survival (increased life span) in mice with human HT-29 xenografts", "type": "in vivo", "details": "for 50% Treatment Days: median survival, Kaplan Meier, vehicle 30 days, same doses", "protocol": "(§1) Mice were implanted with human HT-29 cell xenografts. The mice, cell line used, and implantation are described below.\nFor survival assessment, the percent of increased life space (ILS) was calculated as: 100×[(median survival day of treated group−median survival day of control group)/median survival day of control group]. Median survival was determined utilizing Kaplan Meier survival analysis. […] Differences between groups were considered significant when the probability value (p) was ≦0.05."}, "[2]": {"tested_on": "human HT-29 cell xenografts", "assay": "Antitumor activity (tumor growth inhibition, regression) in mice with human HT-29 colorectal cancer xenografts", "type": "in vivo", "details": "for % Tumor Growth Inhibition: Compound I 25 mg/kg bid, cetuximab 40 mg/kg 2x/wk, irinotecan HCl 40 mg/kg q4d x5, alone or combined", "excerpt": "as §1\nTumor measurements were taken once or twice per week. All animals were individually followed throughout the experiment."}, "[3]": {"details": "number of mice out of 10 per group, same doses"}}, "note": "Where a name gives a salt, the structure may show the parent alone."}
{"smiles": "CCc1c2c(nc3ccc(OC(=O)N4CCC(N5CCCCC5)CC4)cc13)-c1cc3c(c(=O)n1C2)COC(=O)[C@]3(O)CC", "note": "[Irinotecan HCl, irinotecan hydrochloride, reference compound]", "values": [{"measurement": "50% Treatment Days", "setting": "[1]", "result": 35, "unit": "days"}, {"measurement": "% Tumor Growth Inhibition", "setting": "[2]", "result": 59, "unit": "%"}, {"measurement": "Complete Regression", "setting": "[2]; [3]", "result": 0}, {"measurement": "Partial Regression", "setting": "[2]; [3]", "result": 0}, {"measurement": "% Inhibition end of study Day: 32", "setting": "[2]; same doses", "result": 59, "unit": "%"}, {"measurement": "% T/C end of study Day: 32", "setting": "[2]; same doses", "result": 41, "unit": "%"}]}
{"smiles": "CCCS(=O)(=O)Nc1ccc(F)c(C(=O)c2c[nH]c3ncc(-c4ccc(Cl)cc4)cc23)c1F", "note": "[Compound I, propane-1-sulfonic acid {3-[5-(4-chlorophenyl)-1H-pyrrolo[2,3-b]pyridine-3-carbonyl]-2,4-difluoro-phenyl}-amide]", "values": [{"measurement": "% ILS", "setting": "[1]; increased life span versus vehicle, Compound I 25 mg/kg bid, cetuximab 40 mg/kg 2x/wk, irinotecan HCl 40 mg/kg q4d x5, alone or combined", "result": 80, "unit": "%"}, {"measurement": "50% Treatment Days", "setting": "[1]", "result": 54, "unit": "days"}, {"measurement": "Mean Tumor Volume (mm^3) End Study", "setting": "[2]; Compound I 25 mg/kg bid po, cetuximab 40 mg/kg 2x/wk ip, irinotecan HCl 40 mg/kg q4d x5 ip, alone or combined, end of study day 32", "result": 563.72, "unit": "mm^3"}, {"measurement": "% Tumor Growth Inhibition", "setting": "[2]", "result": 76, "unit": "%"}, {"measurement": "Mean Tumor Volume (mm^3) Start Study", "setting": "[2]; baseline at start of treatment (day 11 post implant)", "result": 136.24, "unit": "mm^3"}, {"measurement": "% Inhibition end of study Day: 32", "setting": "[2]; same doses", "result": 76, "unit": "%"}, {"measurement": "% T/C end of study Day: 32", "setting": "[2]; same doses", "result": 24, "unit": "%"}]}
